# According to patent publication US7250442B2, “Dihydroindol-2-one derivatives as steroid hormone nuclear receptor modulators” (Eli Lilly and Company, priority 2003, dated 2007):
# Biological target: T1, human MR (Homo sapiens, UniProt P08235)
# T1 construct: The full length human MR gene is cloned from a human kidney or human brain cDNA library; made in house; host or cells: Sf9 insect cells (baculovirus, pAcHLT transfer vector)
# T1 sequence (P08235 1-984): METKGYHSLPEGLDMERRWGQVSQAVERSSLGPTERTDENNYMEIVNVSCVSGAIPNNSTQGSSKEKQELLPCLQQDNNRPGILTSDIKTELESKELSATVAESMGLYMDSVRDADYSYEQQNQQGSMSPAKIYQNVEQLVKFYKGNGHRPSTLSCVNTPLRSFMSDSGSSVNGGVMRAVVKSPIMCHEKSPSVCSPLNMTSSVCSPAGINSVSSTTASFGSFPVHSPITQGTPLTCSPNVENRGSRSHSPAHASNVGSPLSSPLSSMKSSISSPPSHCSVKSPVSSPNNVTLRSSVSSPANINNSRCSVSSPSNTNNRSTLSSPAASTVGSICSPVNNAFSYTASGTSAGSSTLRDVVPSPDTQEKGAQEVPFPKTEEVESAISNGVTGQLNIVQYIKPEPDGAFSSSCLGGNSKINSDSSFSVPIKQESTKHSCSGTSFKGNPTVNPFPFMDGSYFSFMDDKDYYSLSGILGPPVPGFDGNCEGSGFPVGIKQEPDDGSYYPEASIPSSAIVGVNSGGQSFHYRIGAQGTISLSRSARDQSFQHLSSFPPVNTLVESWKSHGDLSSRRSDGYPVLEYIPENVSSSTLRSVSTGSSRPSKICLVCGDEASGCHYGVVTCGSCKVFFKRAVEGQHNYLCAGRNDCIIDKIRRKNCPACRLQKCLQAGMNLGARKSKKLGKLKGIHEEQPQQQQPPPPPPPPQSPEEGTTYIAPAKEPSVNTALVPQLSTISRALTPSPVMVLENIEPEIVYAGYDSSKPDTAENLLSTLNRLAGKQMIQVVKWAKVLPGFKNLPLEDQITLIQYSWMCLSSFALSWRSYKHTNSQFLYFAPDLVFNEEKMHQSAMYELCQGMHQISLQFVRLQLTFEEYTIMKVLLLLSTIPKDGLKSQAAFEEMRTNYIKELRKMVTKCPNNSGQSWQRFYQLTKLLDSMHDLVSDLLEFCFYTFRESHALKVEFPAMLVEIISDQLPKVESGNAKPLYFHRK
# Test: Mineralocorticoid Receptor Binding Assay ([3H]-aldosterone displacement)
# Conditions: full length human MR expressed in Sf9 cells, 0.5 nM [3H]-aldosterone
# Experimental: Mineralocorticoid Receptor Binding Assay:
# The full length human MR gene is cloned from a human kidney or human brain cDNA library. Briefly, using synthetic oligonucleotide primers (Eli Lilly and Company, Indianapolis) directed to nucleotides 20-54 and 3700-3666 of the human MR, polymerase chain reaction (PCR) is performed under standard conditions using a human cDNA library. The PCR reaction is performed in a final volume of 50 μl containing about 1 μl of a 50× stock solution of polymerase; about 1 μl of a 50× stock solution of dNTP; about 5 μl of an appropriate PCR buffer; about 1 μl of each primer; about 5 μl of a H. kidney or H. brain cDNA library; and about 36 μl of water. The reaction is allowed to denature for about 30 seconds at 95 degrees Celsius, anneal for about 30 seconds at 55 degrees Celsius, and extend for about 5 minutes at 72 degrees Celsius, the sequence being repeated for a total of about 35 cycles. The desired PCR product (3.68 Kb) is confirmed by gel electrophoresis and subsequently cut from the gel and stored at about −20 degrees Celsius until extraction. To extract the cDNA product from the agarose gel, the QIAEX II Gel Extraction protocol (QIAGEN, Inc.) is employed according to the manufacturer's instructions. Following extraction, the MR cDNA is cloned into an appropriate cloning vector (Zero Blunt TOPO PCR Cloning Kit (Invitrogen, Inc.) and a pAcHLT-baculovirus transfer vector (B.D./Pharminogen), then expressed in SF9 insect cells, essentially according to manufacturer's instructions. Sf9 cells are grown at a scale where gram quantity cell pellets are obtained for subsequent use in the MR binding assay. Harvested cell pellets are lysed by repeated freeze-thaw cycles (about 4) in a suitable lysis buffer then centrifuged at about 1×10^3 G (with the supernatant being saved for future assays).
# MR binding assays are performed in a final total volume of about 250 μl containing about 20-25 μg of protein and 0.5 nM of [^3H]-aldosterone plus varying concentrations of test compound or vehicle. The assay binding buffer consists of 30 mM sodium molybdate, 30 mM of TRIS-HCl, 5 mM sodium phosphate, 5 mM sodium pyrophosphate, and about 10% glycerol, pH=7.5.
# Briefly, assays are prepared at RT in 96-well Falcon 3072 plates, each well containing 210 μl of binding buffer, 10 μl of [^3H]-aldosterone, 10 μl of test compound/vehicle, and 20 μl of the resuspended receptor protein extract. Incubations are carried out at 4 degrees Celsius with shaking for about 16 hours. 200 μl aliquots of each incubation are filtered onto Millipore HA 0.45 micron 96-well filter plates, pre-moistened with cold 30 mM TRIS-HCl. The filter plates are suctioned dry with vacuum and immediately washed 3× with cold 30 mM TRIS-HCl. The plates are then punched out and the amount of receptor-ligand complex is determined by liquid scintillation counting using 4 ml of Ready Protein Plus™ liquid scintillation cocktail.
# IC50 values (defined as the concentration of test compound required to decrease [^3H]-aldosterone binding by 50%) are then determined. Ki values for each respective test compound can then be calculated by application of the Cheng-Prusoff equation as described in Cheng et al., Relationship Between The Inhibition Constant (Ki) and The Concentration of Inhibitor Which Causes 50% Inhibition (IC50) of an Enzymatic Reaction, Biochem. Pharmacol., 22: 3099-31088; (1973).
row,Ki [nM],Compound
1,≤ 500,"Cc1cc(C2(c3cc(C)c(O)c(C)c3)C(=O)N(Cc3ccccc3F)c3ccccc32)cc(C)c1O [Example 50, 1-(2-Fluoro-benzyl)-3,3-bis-(4-hydroxy-3,5-dimethyl-phenyl)-1,3-dihydro-indol-2-one]"
2,≤ 500,"Cc1cc(C2(c3cc(C)c(O)c(C)c3)C(=O)N(Cc3cccc(C)c3F)c3ccccc32)cc(C)c1O [Example 70, 1-(2-Fluoro-3-methyl-benzyl)-3,3-bis-(4-hydroxy-3,5-dimethyl-phenyl)-1,3-dihydro-indol-2-one]"
3,≤ 500,"CCOC(=O)CN1C(=O)C(c2cc(C)c(O)c(C)c2)(c2cc(C)c(O)c(C)c2)c2ccccc21 [Example 109, [3,3-Bis-(4-hydroxy-3,5-dimethyl-phenyl)-2-oxo-2,3-dihydro-indol-1-yl]-acetic acid ethyl ester]"
4,≤ 500,"Cc1cc(C2(c3cc(C)c(O)c(C)c3)C(=O)N(Cc3c(C)noc3C)c3ccccc32)cc(C)c1O [Example 9, 1-(3,5-Dimethyl-isoxazol-4-ylmethyl)-3,3-bis-(4-hydroxy-3,5-dimethyl-phenyl)-1,3-dihydro-indol-2-one]"
5,≤ 500,"Cc1cc(C2(c3cc(C)c(O)c(C)c3)C(=O)N(Cc3c(F)cccc3Cl)c3ccccc32)cc(C)c1O [Example 76, 1-(2-Chloro-6-fluoro-benzyl)-3,3-bis-(4-hydroxy-3,5-dimethyl-phenyl)-1,3-dihydro-indol-2-one]"
6,≤ 500,"Cc1cc(C2(c3cc(C)c(O)c(C)c3)C(=O)N(Cc3ccncc3)c3ccccc32)cc(C)c1O [Example 111, 3,3-Bis-(4-hydroxy-3,5-dimethyl-phenyl)-1-pyridin-4-ylmethyl-1,3-dihydro-indol-2-one]"
7,≤ 500,"Cc1cc(C2(c3cc(C)c(O)c(C)c3)C(=O)N(Cc3ccc(F)cc3F)c3ccccc32)cc(C)c1O [Example 43, 1-(2,4-Difluoro-benzyl)-3,3-bis-(4-hydroxy-3,5-dimethyl-phenyl)-1,3-dihydro-indol-2-one]"
8,≤ 500,"Cc1cc(C2(c3cc(C)c(O)c(C)c3)C(=O)N(CC3CCCCC3)c3ccccc32)cc(C)c1O [Example 6, 1-Cyclohexylmethyl-3,3-bis-(4-hydroxy-3,5-dimethyl-phenyl)-1,3-dihydro-indol-2-one]"
9,≤ 500,"CC(C)=CCN1C(=O)C(c2cc(C)c(O)c(C)c2)(c2cc(C)c(O)c(C)c2)c2ccccc21 [Example 102, 3,3-Bis-(4-hydroxy-3,5-dimethyl-phenyl)-1-(3-methyl-but-2-enyl)-1,3-dihydro-indol-2-one]"

# Further lines, the compound ahead of its results:
row,Compound,Ki [nM]
1,"COC(=O)c1cccc(-c2noc(CN3C(=O)C(c4cc(C)c(O)c(C)c4)(c4cc(C)c(O)c(C)c4)c4ccccc43)n2)c1 [Example 141, 3-{5-[3,3-Bis-(4-hydroxy-3,5-dimethyl-phenyl)-2-oxo-2,3-dihydro-indol-1-ylmethyl]-[1,2,4]oxadiazol-3-yl}-benzoic acid methyl ester]",≤ 500
2,"COc1ccc(-c2nc(CN3C(=O)C(c4cc(C)c(O)c(C)c4)(c4cc(C)c(O)c(C)c4)c4cc(C)ccc43)cs2)cc1 [Example 95, 3,3-Bis-(4-hydroxy-3,5-dimethyl-phenyl)-1-[2-(4-methoxy-phenyl)-thiazol-4-ylmethyl]-5-methyl-1,3-dihydro-indol-2-one]",≤ 500
3,"CCc1cccc2c1N(Cc1ccccc1Cl)C(=O)C2(c1cc(C)c(O)c(C)c1)c1cc(C)c(O)c(C)c1 [Example 25, 1-(2-Chloro-benzyl)-7-ethyl-3,3-bis-(4-hydroxy-3,5-dimethyl-phenyl)-1,3-dihydro-indol-2-one]",≤ 500
4,"Cc1cc(C2(c3cc(C)c(O)c(C)c3)C(=O)N(Cc3ccc(OC(F)(F)F)cc3)c3ccccc32)cc(C)c1O [Example 67, 3,3-Bis-(4-hydroxy-3,5-dimethyl-phenyl)-1-(4-trifluoromethoxy-benzyl)-1,3-dihydro-indol-2-one]",≤ 500
5,"Cc1cc(C2(c3cc(C)c(O)c(C)c3)C(=O)N(Cc3ccccc3Cl)c3ccccc32)cc(C)c1N (stereo not drawn) [Example 35, 3-(4-Amino-3,5-dimethyl-phenyl)-1-(2-chloro-benzyl)-3-(4-hydroxy-3,5-dimethyl-phenyl)-1,3-dihydro-indol-2-one]",≤ 500
6,"COc1cccc(CN2C(=O)C(c3cc(C)c(O)c(C)c3)(c3cc(C)c(O)c(C)c3)c3ccccc32)c1 [Example 56, 3,3-Bis-(4-hydroxy-3,5-dimethyl-phenyl)-1-(3-methoxy-benzyl)-1,3-dihydro-indol-2-one]",≤ 500
7,"Cc1cc(C2(c3cc(C)c(O)c(C)c3)C(=O)N(Cc3ccc(C(F)(F)F)cc3C(F)(F)F)c3ccccc32)cc(C)c1O [Example 68, 1-(2,4-Bis-trifluoromethyl-benzyl)-3,3-bis-(4-hydroxy-3,5-dimethyl-phenyl)-1,3-dihydro-indol-2-one]",≤ 500
8,"Cc1cc(C2(c3cc(C)c(O)c(C)c3)C(=O)N(Cc3cccc(OC(F)(F)F)c3)c3ccccc32)cc(C)c1O [Example 8, 3,3-Bis-(4-hydroxy-3,5-dimethyl-phenyl)-1-(3-trifluoromethoxy-benzyl)-1,3-dihydro-indol-2-one]",≤ 500
9,"Cc1ccc2c(c1)C(c1cc(C)c(O)c(C)c1)(c1cc(C)c(O)c(C)c1)C(=O)N2Cc1ccccc1 [Example 17, 1-Benzyl-3,3-bis-(4-hydroxy-3,5-dimethyl-phenyl)-5-methyl-1,3-dihydro-indol-2-one]",≤ 500
10,"Cc1cc(C2(c3cc(C)c(O)c(C)c3)C(=O)N(Cc3csc(-c4ccccc4)n3)c3ccccc32)cc(C)c1O [Example 91, 3,3-Bis-(4-hydroxy-3,5-dimethyl-phenyl)-1-(2-phenyl-thiazol-4-ylmethyl)-1,3-dihydro-indol-2-one]",≤ 500
11,"Cc1cc(C2(c3cc(C)c(O)c(C)c3)C(=O)N(Cc3noc(-c4ccco4)n3)c3ccccc32)cc(C)c1O [Example 87, 1-(5-Furan-2-yl-[1,2,4]oxadiazol-3-ylmethyl)-3,3-bis-(4-hydroxy-3,5-dimethyl-phenyl)-1,3-dihydro-indol-2-one]",≤ 500
12,"Cc1cc(C2(c3ccc(O)cc3)C(=O)N(Cc3ccccc3Cl)c3ccccc32)cc(C)c1O (stereo not drawn) [Example 36, 1-(2-Chloro-benzyl)-3-(4-hydroxy-3,5-dimethyl-phenyl)-3-(4-hydroxy-phenyl)-1,3-dihydro-indol-2-one]",≤ 500
